Values quoted from earlier work as cited in patent US20060134226A1, “Compositions useful to treat ocular neovascular diseases and macular degeneration” (priority 2004, published 2006).

Key:
[1] = in vivo
[2] = oral dose of 600 mg tid, long periods of time, patients with chronic bronchitis and emphysema
[3] = consumed daily
[4] = about 200 mg dosage of zinc per day
[5] = system: macular degeneration changes; settings: 80 mg of zinc, versus placebo
[6] = in vivo; remark: listed apart in the source
[7] = not given; remark: listed apart in the source

Compound: CC(=O)Oc1c(C)c(C)c2c(c1C)CC[C@@](C)(CCC[C@H](C)CCC[C@H](C)CCCC(C)C)O2 (racemic) [dl-alpha tocopheryl acetate]
- level at which no adverse effects have been observed [1]: ≤ 800 mg

Compound: CC(=O)N[C@@H](CS)C(=O)O [NAC, N-acetylcysteine]
- dose excreted in the urine (after 24 hours): approximately 22%
- mean plasma half-life (humans): about 1.35 hours
- absorption of radiolabelled NAC (humans, one hour after administration): rapidly absorbed
- tolerability [2]: well tolerated

Compound: O=C1O[C@H]([C@@H](O)CO)C(O)=C1O [vitamin C, ascorbic acid]
- daily intake without any known adverse effects [3]: ≥ 1,000 mg

Compound: [Zn] [zinc]
- side effects [4]: potential side effects such as anemia
- retarding macular degeneration changes [5]: significantly better than placebo

Compound: beta carotene [beta-carotene]
- efficiency of conversion to vitamin A in the body [6]: approximately 50%
- risk among male smokers ([7]; 20 mg/day of beta-carotene): increased risk of lung cancer
- risk in men with previous myocardial infarction ([7]; 20 mg/day of beta-carotene): increased risk of fatal coronary heart attacks
- dosage level with no observed adverse effects ([7]; healthy, non-smokers): ≤ 25 mg per day
